Laboratory results reported in patent US20240150365A1 (Hotspot Therapeutics, Inc., priority 2022, published 2024).
Read-outs that look alike come from different tables or passages of the source.

Legend:
MALT1 = biological target: T1, MALT1 (Homo sapiens, UniProt Q9UDY8); experiment: MALT-1 Fluorogenic Peptide Cleavage Assay (MALT1 inhibition assay); assay type: biochemical; settings: Avi-tagged FL MALT-1, Ac-LRSR-AMC peptide substrate, 30 min pre-incubation, 90 min reaction
T1 construct: Avi-tagged FL MALT-1 (Pharmaron, stored at −70° C.); Avi tag
T1 sequence (Q9UDY8 1-824): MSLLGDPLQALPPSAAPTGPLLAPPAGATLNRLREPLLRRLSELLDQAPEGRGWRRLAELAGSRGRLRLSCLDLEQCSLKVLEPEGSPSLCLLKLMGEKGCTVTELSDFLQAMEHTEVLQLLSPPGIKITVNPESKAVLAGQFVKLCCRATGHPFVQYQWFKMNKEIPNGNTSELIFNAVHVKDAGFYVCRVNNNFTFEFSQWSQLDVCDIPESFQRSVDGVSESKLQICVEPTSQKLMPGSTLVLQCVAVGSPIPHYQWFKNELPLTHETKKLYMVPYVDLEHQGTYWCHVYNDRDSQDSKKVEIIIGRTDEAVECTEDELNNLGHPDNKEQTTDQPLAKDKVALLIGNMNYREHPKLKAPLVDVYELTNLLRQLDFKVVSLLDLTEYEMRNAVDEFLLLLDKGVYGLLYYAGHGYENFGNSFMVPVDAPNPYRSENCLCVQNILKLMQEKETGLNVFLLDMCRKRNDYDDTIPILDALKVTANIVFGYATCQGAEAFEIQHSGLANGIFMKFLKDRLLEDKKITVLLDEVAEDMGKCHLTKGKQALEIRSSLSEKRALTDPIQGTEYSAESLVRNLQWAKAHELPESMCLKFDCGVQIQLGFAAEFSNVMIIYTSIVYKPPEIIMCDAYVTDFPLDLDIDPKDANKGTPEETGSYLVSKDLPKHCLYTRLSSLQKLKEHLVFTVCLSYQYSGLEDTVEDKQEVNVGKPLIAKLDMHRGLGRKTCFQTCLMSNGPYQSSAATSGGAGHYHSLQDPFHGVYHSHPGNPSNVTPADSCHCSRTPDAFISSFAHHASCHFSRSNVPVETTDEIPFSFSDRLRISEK
In short: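 IC50 from sigmoidal fits of % inhibition, with fluorescence (ex 342, em 441 nm) from AMC released from the quenched LRSR peptide after 90 min at room temperature. Full-length Avi-tagged MALT1 saw compound for 30 min first; final DMSO 2%.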

NF-kB = NF-kB reporter assay in Jurkat cells stimulated with aCD3/aCD28/PMA; assay type: cell-based; settings: Homo sapiens, Jurkat, read-out: NF-kB Reporter Assay IC50
In short: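 Stimulation used final aCD3 5 μg/mL, aCD28 5 μg/mL and PMA 0.03 μg/mL for 4 hr at 37° C, after 1 hr compound pretreatment of 25,000 serum-starved Jurkat cells per well. One-Glo luminescence gave IC50 values.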

[1] = Jurkat cells, 1 hr compound incubation, aCD3/aCD28/PMA stimulation 4 hr, One-Glo readout

Structure (SMILES)	IC50 (MALT1) [nM]	IC50 (NF-kB; [1]) [nM]	IC50 (NF-kB) [nM]
Cn1c(=O)c2c(NS(=O)(=O)c3ccc(-n4cc(C(F)(F)F)cn4)nc3)cccc2n1C [Example I-182, N-(1,2-dimethyl-3-oxo-2,3-dihydro-1H-indazol-4-yl)-6-(4-(trifluoromethyl)-1H-pyrazol-1-yl)pyridine-3-sulfonamide]	> 2500	> 2500	
Cc1nn(-c2ccc(S(=O)(=O)Nc3cccc4cnn(C)c34)cn2)c(C)c1Cl [Example I-42, 6-(4-Chloro-3,5-Dimethyl-1H-Pyrazol-1-yl)-N-(1-Methyl-1H-Indazol-7-yl) Pyridine-3-Sulfonamide]	> 2500	< 400	
Cn1ncc2cccc(NS(=O)(=O)c3ccc(-c4cnc(Cl)s4)nc3)c21 [Example I-250, 6-(2-chlorothiazol-5-yl)-N-(1-methyl-1H-indazol-7-yl)pyridine-3-sulfonamide]	1000 to 2500		< 400
Cn1ncc2cccc(NS(=O)(=O)c3ccc(-n4cc(C5(F)CC5)cn4)nc3)c21 [Example I-55]	> 2500	< 400	
COCCn1ncc2cccc(NS(=O)(=O)c3ccc(-n4ccc(C(C)C)n4)nc3)c21 [Example I-215, 6-(3-isopropyl-1H-pyrazol-1-yl)-N-(1-(2-methoxyethyl)-1H-indazol-7-yl)pyridine-3-sulfonamide]	> 2500	> 2500	
Cc1nn(C)cc1-c1ccc(S(=O)(=O)Nc2cccc3cnn(C)c23)cn1 [Example I-87, 6-(1,3-Dimethyl-1H-Pyrazol-4-yl)-N-(1-Methyl-1H-Indazol-7-yl)Pyridine-3-Sulfonamide]	> 2500	< 400	
CCc1ccc2cnn(C)c2c1NS(=O)(=O)c1ccc(-n2cc(C(F)(F)F)cn2)nn1 [Example I-9, N-(6-Ethyl-1-Methyl-1H-Indazol-7-yl)-6-(4-(Trifluoromethyl)-1H-Pyrazol-1-yl)Pyridazine-3-Sulfonamide]	> 2500	> 2500	
Cn1ncc2cccc(NS(=O)(=O)c3ccc(-c4cnc(C(F)F)s4)nc3)c21 [Example I-241, 6-(2-(difluoromethyl)thiazol-5-yl)-N-(1-methyl-1H-indazol-7-yl)pyridine-3-sulfonamide]	400 to 1000		< 400
Cc1cc(-c2ccc(S(=O)(=O)Nc3cccc4cnn(C)c34)cn2)n(C)n1 [Example I-119, 6-(2,5-Dimethylpyrazol-3-yl)-N-(1-Methyl-Indazol-7-yl)Pyridine-3-Sulfonamide]	> 2500	< 400	
COc1nn(C)cc1-c1ccc(S(=O)(=O)Nc2cccc3cnn(C)c23)cn1 [Example I-125, 6-(3-Methoxy-1-Methyl-1H-Pyrazol-4-yl)-N-(1-Methyl-1H-Indazol-7-yl)Pyridine-3-Sulfonamide]	> 2500	< 400	
COc1ccc2cnn(C)c2c1NS(=O)(=O)c1ccc(-c2csc(C)n2)nc1 [Example I-173, N-(6-methoxy-1-methylindazol-7-yl)-6-(2-methyl-1,3-thiazol-4-yl)pyridine-3-sulfonamide]	< 400		< 400
Cn1ncc2cccc(NS(=O)(=O)c3ccc(-n4ncc5c4CCOC5)nc3)c21 [Example I-245, N-(1-methylindazol-7-yl)-6-{4H,6H,7H-pyrano[4,3-c]pyrazol-1-yl}pyridine-3-sulfonamide]	> 2500	< 400	

Now from value to molecule, other results behind:

IC50 (MALT1) [nM]	IC50 (NF-kB; [1]) [nM]	Structure (SMILES)	IC50 (NF-kB) [nM]
> 2500	> 2500	Cn1ncc2cccc(NS(=O)(=O)c3ccc(-c4cc5cnccc5[nH]4)nc3)c21 [Example I-77, N-(1-Methyl-1H-Indazol-7-yl)-6-(1H-Pyrrolo[3,2-C]Pyridin-2-yl)Pyridine-3-Sulfonamide]	
1000 to 2500	1000 to 2500	CCc1ccc2cnn(C)c2c1NS(=O)(=O)c1ccc(-n2cc(C(F)(F)F)cn2)cn1 [Example I-7, N-(6-Ethyl-1-Methyl-1H-Indazol-7-yl)-5-(4-(Trifluoromethyl)-1H-Pyrazol-1-yl)Pyridine-2-Sulfonamide]	
> 2500	1000 to 2500	Cn1[nH]c(=O)c2c(NS(=O)(=O)c3ccc(-n4cc(C(F)(F)F)cn4)nc3)cccc21 [Example I-198, N-(1-methyl-3-oxo-2,3-dihydro-1H-indazol-4-yl)-6-(4-(trifluoromethyl)-1H-pyrazol-1-yl)pyridine-3-sulfonamide]	
> 2500	> 2500	Cn1ncc2cccc(NS(=O)(=O)c3ccc(N4CCOC4=O)nc3)c21 [Example I-230, N-(1-Methyl-1H-Indazol-7-yl)-6-(2-Oxooxazolidin-3-yl)Pyridine-3-Sulfonamide]	
< 400	< 400	[2H]C([2H])([2H])n1ncc2ccc(OC)c(NS(=O)(=O)c3ccc(-n4cc(C)cn4)nc3)c21 [Example I-206, N-(6-Methoxy-1-(Methyl-D3)-1H-Indazol-7-yl)-6-(4-Methyl-1H-Pyrazol-1-yl)Pyridine-3-Sulfonamide]	
1000 to 2500	1000 to 2500	Cc1ncc2cnn(C)c2c1NS(=O)(=O)c1ccc(-n2cc(C(F)(F)F)cn2)nc1 [Example I-189, N-(1,6-dimethyl-1H-pyrazolo[4,3-c]pyridin-7-yl)-6-(4-(trifluoromethyl)-1H-pyrazol-1-yl)pyridine-3-sulfonamide]	
< 400	400 to 1000	COc1ccc2cnn(C)c2c1N(C)S(=O)(=O)c1ccc(-n2cc(C(C)C)cn2)nc1 [Example I-172, 6-(4-isopropylpyrazol-1-yl)-N-(6-methoxy-1-methylindazol-7-yl)-N-methylpyridine-3-sulfonamide]	
1000 to 2500	< 400	Cc1cc(S(=O)(=O)Nc2cccc3cnn(C)c23)cnc1-n1cc(C(F)(F)F)cn1 [Example I-65, 5-Methyl-N-(1-Methyl-1H-Indazol-7-yl)-6-(4-(Trifluoromethyl)-1H-Pyrazol-1-yl)Pyridine-3-Sulfonamide]	
< 400	400 to 1000	COc1ncc2cnn(C)c2c1NS(=O)(=O)c1ccc(-n2nc(C(F)(F)F)c3c2CCOC3)nc1 [Example I-300, N-(6-methoxy-1-methyl-1H-pyrazolo[4,3-c]pyridin-7-yl)-6-(3-(trifluoromethyl)-6,7-dihydropyrano[4,3-c]pyrazol-1(4H)-yl)pyridine-3-sulfonamide]	
< 400	400 to 1000	Cc1ccn(-c2ccc(S(=O)(=O)Nc3c(C)ccc4cnn(C)c34)cn2)n1 [Example I-34, N-(1,6-dimethyl-1H-indazol-7-yl)-6-(3-methyl-1H-pyrazol-1-yl)pyridine-3-sulfonamide]	
< 400	400 to 1000	COc1ncc2cnn(C)c2c1NS(=O)(=O)c1ccc(N2C[C@@](O)(C(F)(F)F)CC2=O)nc1 [Example I-235, (R)-6-(4-hydroxy-2-oxo-4-(trifluoromethyl)pyrrolidin-1-yl)-N-(6-methoxy-1-methyl-1H-pyrazolo[4,3-c]pyridin-7-yl)pyridine-3-sulfonamide]	
< 400	< 400	COc1ccc2cnn(C)c2c1NS(=O)(=O)c1ccc(-n2cc(C)c(C)n2)nc1 [Example I-129, 6-(3,4-dimethyl-1H-pyrazol-1-yl)-N-(6-methoxy-1-methyl-1H-indazol-7-yl)pyridine-3-sulfonamide]	
400 to 1000	400 to 1000	Cn1ncc2cc(F)cc(NS(=O)(=O)c3ccc(-n4cc(C(F)(F)F)cn4)nc3)c21 [Example I-73, N-(5-Fluoro-1-Methylindazol-7-yl)-6-[4-(Trifluoromethyl)Pyrazol-1-Yl]Pyridine-3-Sulfonamide]	
< 400	< 400	COc1ccc2cnn(C)c2c1NS(=O)(=O)c1ccc(-c2cc(C(F)(F)F)nn2C)nc1 [Example I-18, N-(6-Methoxy-1-Methylindazol-7-yl)-6-[2-Methyl-5-(Trifluoromethyl)Pyrazol-3-yl]pyridine-3-Sulfonamide]	
< 400	< 400	[2H]C([2H])([2H])n1ncc2cnc(OC)c(NS(=O)(=O)c3ccc(-n4cc(C(F)(F)F)cn4)nc3)c21 [Example I-290, N-(6-methoxy-1-(methyl-d3)-1H-pyrazolo[4,3-c]pyridin-7-yl)-6-(4-(trifluoromethyl)-1H-pyrazol-1-yl)pyridine-3-sulfonamide]	
